We go through one molecule from patent publication US12583884B2, “3beta-(benzyloxy)-17alpha-methyl-pregn-5-en-20-one for use in the treatment of cognitive disorders” (AELIS FARMA, priority 2018, dated 2026).

Each structure is given as a SMILES string.

One series has as its target human CB1 receptor (Homo sapiens, UniProt P21554). The series can be described thus: THC-induced decrease of cAMP in CHO-hCB1 cells. It is filed as cell-based. As to conditions: 1 nM, 10 nM, 100 nM and 1 μM. As for the experimental part: CHO-CB1-C2 cells were treated by concomitantly adding THC and the test compound for 45 minutes. Forskolin (2.5 μM) was also simultaneously added in all the conditions tested to sustain cAMP basal level.
At the end of the treatment, cells were lysed to proceed with the cAMP quantification. All measures were performed in triplicates in one experiment. The quantitative determination of cAMP was performed through a competitive fluorescence immunoassay. Data were expressed as % of Delta Fluorescence (Delta F) that was calculated as follows: Delta F %=(Sample Fluorescence−Negative control Fluorescence)/Negative control Fluorescence.

For another series, the system named is Ts65Dn mice. As to the kind of experiment: Declarative/relational memory (radial maze flexibility test), Down syndrome model. Format: in vivo, mouse. The note with it: 0.6 μg/ml in drinking water. As for the experimental part: The relational memory task was performed using 8-arm radial mazes. The diameter of the central platform was 30 cm and the arms were 55 cm length; 10 cm width and 100 cm height from the floor. Each arm was equipped with a retractable door at its entrance and with a food-pellet delivering system at its end. Each maze was placed in a room containing visual cues on the walls to enable spatial discrimination. There was no intra-maze cue. Each maze was fully automated by videotracking (IMETRONIC Pessac—France). This allowed to automatically control the doors of the arms (opening/closure) and food delivery according to the location of the mouse.
Food-restricted mice (85% of their original body weight all throughout the study) were first submitted to 3 sessions of habituation to the mazes. During each habituation session, the mouse freely explored the maze until it visited each of the 8 arms, or 30 min elapsed. At the beginning of each habituation session, the mouse was placed in the central platform with all the arms closed. […]
The number of correct responses was measured at each session. […]
At the end of the behavioral study, mice were sacrificed, blood and brain samples were collected. 3Bn17MeP was quantified by LC/MS-MS chromatography in both plasma and brain.

Another series is described as follows: in vivo. The note with it: both, Sprague-Dawley, rat, 20 mg/kg. The protocol:
Blood samples for plasma drug analysis were collected after the last treatment, at 5 and 24 hours post-dose. Quantification was done by LC/MS-MS chromatography.

human CB1 receptor, sequence (P21554 whole entry): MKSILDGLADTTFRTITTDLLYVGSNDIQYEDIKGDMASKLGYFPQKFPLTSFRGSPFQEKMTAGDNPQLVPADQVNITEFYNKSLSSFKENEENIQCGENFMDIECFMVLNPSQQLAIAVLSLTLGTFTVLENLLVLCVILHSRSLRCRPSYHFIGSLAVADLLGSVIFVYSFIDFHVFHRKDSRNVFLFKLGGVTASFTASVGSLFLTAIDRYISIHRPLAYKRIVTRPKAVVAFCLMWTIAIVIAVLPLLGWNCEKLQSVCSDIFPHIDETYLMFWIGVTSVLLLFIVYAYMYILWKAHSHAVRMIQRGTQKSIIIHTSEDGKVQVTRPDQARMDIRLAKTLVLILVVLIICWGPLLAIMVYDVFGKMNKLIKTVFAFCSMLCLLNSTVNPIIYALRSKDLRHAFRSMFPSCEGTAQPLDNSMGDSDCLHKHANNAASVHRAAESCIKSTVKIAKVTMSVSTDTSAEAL

`CC(=O)[C@@]1(C)CC[C@H]2[C@@H]3CC=C4C[C@@H](OCc5ccccc5)CC[C@]4(C)[C@H]3CC[C@@]21C` [3Bn17MeP, 3β-benzyloxy, 17α-methyl-pregn-5-en-20-one]: the “Effect on inhibition of cAMP induced by THC” value on human CB1 receptor is given as “does not modify”. Besides, the “Choice accuracy in the flexibility test (declarative/relational memory)” value in the series with Ts65Dn mice is on record as “enhanced choice accuracy of Ts65Dn mice that reached the level of WT”. In “in vivo”, the concentration at 5 h was found to be 4650 ng/mL and the concentration at 24 h was 974 ng/mL.
